In PubChem BioAssay AID1963958 (Molecular Pharmacology Branch, DTP, NCI, 2024):

Test system: MDA-MB-231 multicell spheroids, viability
Test: Anticancer human tumor MDA-MB-231 cell line growth inhibition [PI3K];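 further: spheroids exposed to agents for seven days before reading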;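 on viability, T/C: percent of vehicle control luminescence with DMSO treated spheroids as 100%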
Conditions: for IC50: curve of first compound; for viability, T/C: stronger effect = lower value
From the text: Combinatorial screen of targeted agents with the PI3K inhibitors inavolisib, alpelisib, duvelisib, and copanlisib in multi-cell type tumor spheroids
A high-throughput screen of multi-cell type tumor spheroids was designed to identify active combinations of targeted small molecules and PI3K pathway inhibitors. Complex spheroids include a stromal component modeled by human endothelial cells (HUVEC) and fibroblasts modeled by human mesenchymal stem cells (MSCs). The concentration ranges selected for each drug and investigational agent were based upon clinically achievable concentrations if the clinical Cmax of the agent was known.
Compounds. The drugs and investigational agents: inavolisib (NSC800729), alpelisib (NSC765974), duvelisib (NSC772469), copanlisib (NSC816437), ipatasertib (NSC767898), afuresertib (NSC778305), talazoparib (NSC767125), sapanisertib (NSC764658), selumetinib (NSC741078), tovorafenib (DAY101, NSC766906), vemurafenib (NSC761431), ravoxertinib (NSC781343), sotorasib (NSC818433), MRTX1133 (NSC 836407), abemaciclib (NSC 768073), palbociclib (NSC758247), venetoclax (NSC 766270), SY5609 (NSC837396), enzalutamide (NSC755605), and darolutamide (NSC825331), were obtained from the National Cancer Institute (NCI) Developmental Therapeutics Program Chemical Repository. The FDA-approved anticancer drug set is available from the NCI Developmental Therapeutics Program. […] The stock solutions were prepared in dimethyl sulfoxide (DMSO, Sigma-Aldrich, St. Louis, MO, cat. D2650) at 800-fold the tested concentration and stored at -70 degrees C prior to their use. All drugs and investigational agents were tested over a range starting from a high concentration at or near the clinical Cmax and decreasing in half-log increments. If the clinical Cmax for an agent had not been determined, the highest concentration tested was 10 microM.
Cell Culture. All cells were maintained in an incubator at 37 degrees C and 5% CO2 with 95% humidity. The PDC lines were cultured according to standard operating procedures established by the NCI PDMR (https://pdmr.cancer.gov/sops/default.htm). All PDCs were thawed and cultured in Matrigel-coated flasks prepared with a working solution of 1X Ham's F-12 nutrient mix, without supplementation (Invitrogen, Waltham, MA, cat. 11765054), 100 U/mL penicillin-streptomycin (Invitrogen, cat. 15140122), and 2.5% Matrigel (Corning Inc., Corning, NY, cat. 354248) for the first three passages. The 354836-022-R-J1-PDC, 475296-252-R-J1-PDC, and 997726-040-R-J2-PDC lines were cultured in 6A media, which includes advanced DMEM/F-12 (Thermo Fisher Scientific, cat. 12634028), 10 mM HEPES (Thermo Fisher Scientific, cat. 15630080), 1X GlutaMAX supplement (Thermo Fisher Scientific, cat. 35050061), 0.1 mg/mL primocin (InvivoGen, San Diego, CA, cat. ant-pm-2), 10% defined fetal bovine serum, heat inactivated (HyClone Laboratories Inc., Logan, UT, cat. SH30070.03HI), 50% L-WRN conditioned media (ATCC, cat. CRL-3276), 1.25 mM N-Acetyl-L-cysteine (Sigma-Aldrich, cat. A9165), 10 mM nicotinamide (Sigma-Aldrich, cat. N0636), 1X B-27 supplement (Thermo Fisher Scientific, cat. 17504044), 1X N-2 supplement (Thermo Fisher Scientific, cat. 17502048), and 10 microM Y-27632 dihydrochloride (Tocris Bioscience, Bristol, United Kingdom, cat. 1254). The 624824-186-R-J2-PDC line was cultured in 6C/Colon 1B media, which includes all 6A media components plus 50 ng/mL human EGF recombinant protein (Thermo Fisher Scientific, cat. PHG0311). […]

SMILES: CC1(C)CCC(CN2CCN(c3ccc(C(=O)NS(=O)(=O)c4ccc(NCC5CCOCC5)c([N+](=O)[O-])c4)c(Oc4cnc5[nH]ccc5c4)c3)CC2)=C(c2ccc(Cl)cc2)C1 + CC(Nc1ccc2c(c1)OCCn1cc(N3C(=O)OCC3C(F)F)nc1-2)C(N)=O
- IC50 (second compound 0.00316 µM): 6.9 µM
- IC50 (second compound 0.01 µM): 7.07 µM
- IC50 (second compound 0.0316 µM): 6.41 µM
- IC50 (second compound 0.1 µM): 5.45 µM
- IC50 (second compound 0.316 µM): 4.72 µM
- IC50 (second compound 1 µM): 4.36 µM
- viability, T/C (second compound 0.00316 µM, first compound 0.0316 µM): 95.8%
- viability, T/C (second compound 0.00316 µM, first compound 0.1 µM): 92.2%
- viability, T/C (second compound 0.00316 µM, first compound 0.316 µM): 104%
- viability, T/C (second compound 0.00316 µM, first compound 1 µM): 111%
- viability, T/C (second compound 0.00316 µM, first compound 3.16 µM): 105%
- viability, T/C (second compound 0.00316 µM, first compound 10 µM): 25.5%
- viability, T/C (second compound 0.01 µM, first compound 0.0316 µM): 94.1%
- viability, T/C (second compound 0.01 µM, first compound 0.1 µM): 99.1%
- viability, T/C (second compound 0.01 µM, first compound 0.316 µM): 94.9%
- viability, T/C (second compound 0.01 µM, first compound 1 µM): 96.4%
- viability, T/C (second compound 0.01 µM, first compound 3.16 µM): 92.2%
- viability, T/C (second compound 0.01 µM, first compound 10 µM): 31.8%
- viability, T/C (second compound 0.0316 µM, first compound 0.0316 µM): 83.8%
- viability, T/C (second compound 0.0316 µM, first compound 0.1 µM): 77.5%
- viability, T/C (second compound 0.0316 µM, first compound 0.316 µM): 79.3%
- viability, T/C (second compound 0.0316 µM, first compound 1 µM): 85.8%
- viability, T/C (second compound 0.0316 µM, first compound 3.16 µM): 86.6%
- viability, T/C (second compound 0.0316 µM, first compound 10 µM): 29.5%
- viability, T/C (second compound 0.1 µM, first compound 0.0316 µM): 77.2%
- viability, T/C (second compound 0.1 µM, first compound 0.1 µM): 69.1%
- viability, T/C (second compound 0.1 µM, first compound 0.316 µM): 71.4%
- viability, T/C (second compound 0.1 µM, first compound 1 µM): 69.6%
- viability, T/C (second compound 0.1 µM, first compound 3.16 µM): 69.8%
- viability, T/C (second compound 0.1 µM, first compound 10 µM): 28.2%
- viability, T/C (second compound 0.316 µM, first compound 0.0316 µM): 64%
- viability, T/C (second compound 0.316 µM, first compound 0.1 µM): 64.6%
- viability, T/C (second compound 0.316 µM, first compound 0.316 µM): 61.1%
- viability, T/C (second compound 0.316 µM, first compound 1 µM): 66.4%
- viability, T/C (second compound 0.316 µM, first compound 3.16 µM): 70.6%
- viability, T/C (second compound 0.316 µM, first compound 10 µM): 21.4%
- viability, T/C (second compound 1 µM, first compound 0.0316 µM): 64.9%
- viability, T/C (second compound 1 µM, first compound 0.1 µM): 60.2%
- viability, T/C (second compound 1 µM, first compound 0.316 µM): 60.8%
- viability, T/C (second compound 1 µM, first compound 1 µM): 60.2%
- viability, T/C (second compound 1 µM, first compound 3.16 µM): 65.5%
- viability, T/C (second compound 1 µM, first compound 10 µM): 18.3%
